Consider one molecule from patent US20110286979A1, “CHEMOSENSITIZATION BY BI-FUNCTIONAL SMALL HAIRPIN RNA (bi-shRNA)” (GRADALIS, INC., priority 2010, published 2011).

Experiment [1] relates to SK-Mel-28 melanoma cells. The experiment in a line: BrdU Cell Proliferation Assay, docetaxel dose response with/without shRNA plasmid electroporation. Particulars: Homo sapiens.
The subject of experiment [2] is CCL-247 colorectal cancer cells. The experiment is described as above. It counts as cell-based, human. Particulars: for IC50: Homo sapiens. How it is done: Docetaxel storage stock was made in 10 mM, with DMSO as solvent in a biological safety cabinet for sterility purposes. Docetaxel solution was stored in 4° C. fridge away from direct light. For each experiment, docetaxel storage solution was brought to room temperature to thaw, about 30 min before usage. A 5 uM working solution was made and further diluted 1:50. To 9.8 ml complete CCL-247 media, 0.2 ml 5 uM working solution was added so that 10 ul of the solution into final volume of 100 ul will make 10 nM. The 10 nM solution was serially diluted to make 5 nM, 2.5 nM, 1.25 nM, 0.625 nM, and 0.3124 nM.
The CCL-247 media comprises HyClone McCoy's 5A medium 500 ml, FBS 50 ml, and L-Glutamine 10 ml. Under the biological cabinet, the above solutions were mixed into McCoy's 5A medium 500 ml bottle. The mixture was poured at the top part of filter, a vacuum pump was turned on to filter the mixed medium through. The media was stored at 4° C. after use.
The % growth inhibition is calculated as: […]

Like-named read-outs stand apart in the source and are kept apart here.

Consider `CC(=O)O[C@@]12CO[C@@H]1C[C@H](O)[C@@]1(C)C(=O)[C@H](O)C3=C(C)[C@@H](OC(=O)[C@H](O)[C@@H](NC(=O)OC(C)(C)C)c4ccccc4)C[C@@](O)([C@@H](OC(=O)c4ccccc4)[C@H]21)C3(C)C` [Docetaxel, docetaxel], for which the concentration for half-maximal inhibition (IC50) is 0.1 nM in experiment [1] (SK-MEL-28, 48 h, read-out: Docetaxel IC50 (mean ± SD), SK-Mel-28, + pbi-shRNA^STMN1, 48 h); 1 ± 0.2 nM in experiment [1] (SK-MEL-28, 48 h, read-out: Docetaxel IC50 (mean ± SD), SK-Mel-28, + scrambled control, 48 h); 1.7 ± 2 nM in experiment [1] (SK-MEL-28, 48 h, read-out: Docetaxel IC50 (mean ± SD), SK-Mel-28, no ShRNA, 48 h); 0.2 ± 0.1 nM in experiment [1] (SK-MEL-28, 72 h, read-out: Docetaxel IC50 (mean ± SD), SK-Mel-28, + pbi-shRNA^STMN1, 72 h); 0.9 ± 0.2 nM in experiment [1] (SK-MEL-28, 72 h, read-out: Docetaxel IC50 (mean ± SD), SK-Mel-28, + scrambled control, 72 h); 0.8 ± 0.2 nM in experiment [1] (SK-MEL-28, 72 h, read-out: Docetaxel IC50 (mean ± SD), SK-Mel-28, no ShRNA, 72 h). The IC50 in experiment [1] (SK-MEL-28, read-out: IC50 of docetaxel, SK-Mel-28, with STMN1 knockdown (bi-shRNA^STMN1), BrdU, n=3) was found to be 0.1 nM; in experiment [1] (SK-MEL-28, read-out: IC50 of docetaxel, SK-Mel-28, without STMN1 knockdown, BrdU, n=3), 1.7 ± 0.2 nM; in experiment [2] (48 h, CCL-247, + pbi-shRNA^STMN1, 48 h, read-out: Docetaxel IC50 (mean ± SD)), 0.6 ± 0.4 nM; in experiment [2] (48 h, CCL-247, no ShRNA, 48 h, read-out: Docetaxel IC50 (mean ± SD)), 1.8 ± 0.2 nM; in experiment [2] (72 h, CCL-247, + pbi-shRNA^STMN1, 72 h, read-out: Docetaxel IC50 (mean ± SD)), 0.6 ± 0.4 nM; in experiment [2] (72 h, CCL-247, + scrambled control, 72 h, read-out: Docetaxel IC50 (mean ± SD)), 1 ± 0.6 nM. For the same molecule, the half-inhibitory concentration (IC50) in experiment [2] (72 h, CCL-247, no ShRNA, 72 h, read-out: Docetaxel IC50 (mean ± SD)) is 1 ± 0.4 nM; in experiment [2] (CCL-247, with STMN1 knockdown (bi-shRNA^STMN1), BrdU, n=3, read-out: IC50 of docetaxel), 0.6 ± 0.4 nM; in experiment [2] (CCL-247, without STMN1 knockdown, BrdU, n=3, read-out: IC50 of docetaxel), 1.8 ± 0.2 nM. Moreover, in experiment [2] (CCL-247, docetaxel alone 1.25 nM, 48 hrs), the “cell growth compared to control” value is on record as “about 70%”.
